“And” between values parts separate entries of the source, which are not always exact repeats. Equal entries are not always repeated. “Also recorded” adds a separate entry of the source.
Legend:
Reticulitermes sp. = assay: Inulin treated vs untreated paper towel diets placed on yellow pine termite harborages; type: in vivo; details: average of 7 d
Experimental: Subterranean termites, Reticulitermes sp. were reared in the laboratory in Nunc dishes containing strips of yellow pine wood as a food resource and termite harborage. Inulin treated and untreated paper towel diets were weighed and then placed side by side on the top of the termite harborages (strips of yellow pine). Termites were allowed to forage for an average of 7 d. After the test period, the diets were removed, weighed and consumption of each towel diet was recorded as a percentage of total consumption of both paper towel diets.

Reticulitermes spp. [1] = assay: Diet consumption by groups of termites in no-choice and choice bioassay arenas; type: in vivo
Experimental: Subterranean Termite Collection. Five wild populations of Reticulitermes spp. were collected from fallen wood in forested areas of Fairfax County (N38° 43.29′ and W77° 30.93′), Montgomery County (N37° 12.46′ and W80° 24.47′), Rockbridge County (N37° 48.00′ and W 79° 25.00′), and Roanoke County (N37° 19.53′ and W79° 58.53′), Virginia. Termites were harvested by placing the infested wood into large storage bins (70 L; Sterlite®; Sterlite Corporation, Townsend, Mass.) on top of damp, recycled paper towels (Acclaim®; Fort James Corporation, Deerfield, Ill.). As the wood dried out the termites moved into the moist paper towels. The infested paper towels were then transferred to plastic storage containers (11.3 L; Rubbermaid, Wooster, Ohio) containing vermiculite (500 g; moistened 150% by weight (Lenz M., T. L. Amburgey, D. Zi-Rong, H. Kuhne, J. K. Mauldin, A. F. Preston, and M. Westcott, 1987, Interlaboratory studies on termite-wood decay fungi associations: I. Determination of maintenance conditions for several species of termites (Isoptera: Mastotermitidae, Termopsidae, Rhinotermitidae), Sociobiology, 13:1-56; Cherokee Vermiculite Horticultural Fine Cherokee Products, Jefferson City, Tenn.). Subterannean termite containers were stored in complete darkness (˜21° C. and 97% RH) until needed for testing. Subterranean termites were tested within one month after being collected from the field.
Termite Diet Preparation. Recycled brown paper toweling (Acclaim®) was cut into squares (35×35 mm) and used as a diet substrate. The diet substrates were placed into glass Pyrex Petri dishes (100×20 mm; Corning Glass Works, Corning, N.Y.) and dried overnight in a single wall, gravity convection, laboratory oven (60° C.; Blue M SW-17TA; Blue M Electric Company; Blue Island, Ill.). After 24 hours, each diet substrate was taken out of the oven, numbered in the corner with a pencil and weighed on a balance (Mettler AE163; Lab Tech, Inc.) to the nearest 0.1 mg. After weighing, certain diets were treated with radiochemicals. Because hexaflumuron cannot be stored at temperatures greater than 50° C., radioisotopes were only applied after the diets were oven dried. The weight of the isotopes on the diet after air drying was determined to be negligible.
Control Diets. Control diets were treated with the visual marker only. The visual marker was formulated by dissolving Nile Blue-A in acetone and applying a 150 μl aliquot of dye solution to each diet substrate. The final Nile Blue-A concentration on the diet was 0.1%.
^14C-hexaflumuron Diets. A stock solution of technical grade hexaflumuron, ^14C-hexaflumuron (0.5% total hexaflumuron concentration) and 0.1% Nile Blue-A was formulated in acetone. An aliquot (150 μl) of the solution was applied to each diet substrate so that each diet contained 0.27 μCi of the ^14C-hexaflumuron.
^3H-inulin Diets. A stock solution of the ^3H-inulin and 0.1% Nile Blue-A (1.95 mg) was formulated in acetone. An aliquot (150 μl) of the solution was applied to each diet substrate so that each diet contained […] of the ^3H-inulin. ^3H has a lower energy spectrum than ^14C, so ˜8× more ^3H-inulin was added to the diets than ^14C-hexaflumuron to facilitate radioisotope quantification process after termite consumption.
Bioassay Arenas: Consumption bioassays were performed in choice and non-choice bioassay arenas. Arena tests were used to evaluate termite consumption of hexaflumuron treated bait alone and in the presence of a competing food source.
No-Choice Bioassay. No-choice bioassay arenas were assembled by connecting two Petri dishes with Tygon tubing (inner diameter 3.2 mm, outer diameter 6.4 mm). Petri dishes were washed 4 times in tap water to eliminate static electricity. Tygon tubing was soaked in tap water for 3 hours and allowed to air dry prior to use. One Petri dish (95 mm×15 mm; Fisher Scientific) served as a termite housing chamber and was filled with moist sand (˜45 g). […]

Reticulitermes spp. [2] = assay: Diet consumption by individual termites, radioisotope quantification by scintillation counting; type: in vivo; details: for feeding preference of individual termites: choice test 14C-hexaflumuron and 3H-inulin
Experimental: Diet Consumption by Individual Termites. After mortality was recorded for a particular treatment/day, 20 surviving termites were randomly selected from each radioactive treatment arena for isotope analysis. Random selection was not limited to dyed termites. Non-dyed termites were also selected. The termites were thoroughly rinsed with distilled water three times to remove any radioactivity from the outside of the body. They were next placed on paper towels to remove excess water. Each rinsed, dried termite was placed into a separate microcentrifuge tube (1.5 ml; Fisher Brand), and the body was homogenized in 200 μl of distilled water. The homogenate was transferred into a glass scintillation vial (20 ml; Kimble Glass, Vineland, N.J.). Microcentrifuge tubes were rinsed three times with 200 μl of distilled water per rinse. Each rinse was added to the homogenate in the scintillation vial. An aliquot of scintillation cocktail (8 ml; Scintiverse® BD; Fisher Scientific, Fair Lawn, N.J.) was then added to each vial.
The amount of radioactivity contained within each sample was quantified by using a scintillation counter (Beckman Coulter, Inc.™ LS 6500, Fullerton, Calif.). The individual termite samples contained very low dpm counts. Therefore, sample vials containing only a single isotope (from no-choice tests) were counted for 10 minutes. However, sample vials that potentially could contain dual isotopes (from choice-tests) were counted for 20 minutes to improve the accuracy of the counts.
Background Radioactivity Measurements. After termite mortality had been recorded, 2 termites were selected at random from each no-choice, control arena. These termites were rinsed, homogenized, and prepared for scintillation counting as previously described. Control termites were counted in the scintillation counter for 10 minutes to record background radioactivity. Background radioactivity was measured for each treatment group (choice and no-choice) at both 2 d and 5 d. Background measurements also accounted for any quenching that occurred due to the termite body fragments occluding light transmission in the scintillation counter. Before the test data was analyzed, background radioactivity counts for a particular sample was subtracted from the sample's spectral peak (Traniello, J. F. A., R. B. Rosengaus and C. K. Levy, 1985, Single and double isotope labeling of social insect colonies, Entomol. Exp. Appl., 38:87-92; Suarez, M. E. and B. L. Thorne, 2000, Effects of food type and foraging distance on trophallaxis in the subterranean termite Reticulitermes virginicus (Isoptera: Rhinotermitidae), Sociobiology, 35: 487-498).
Radiolabel Counting using Dual Label Technique. Specialized procedures were required for analysis of radiolabeled samples containing both ^14C and ^3H. Due to the potential low/high counts and spillover of ^14C and ^3H in the counting window, a series of dilutions was made from extracted diets (with known amounts of activity) to correct for spillover. The range of activity values for ^14C and ^3H and a combination of the two isotopes within the samples was determined. Spillover correction curves were generated for the range of sample data and used to correct those samples where high levels of both ^14C and ^3H occurred and spillover was evident.
Quantification of radioactive isotopes from individual termite cadavers was used to determine how much a single termite consumed of ^14C-hexaflumuron diet in the presence of a competing food source. Mean consumption of ^14C-hexaflumuron diet in the no-choice test was compare with ^14C-hexaflumuron consumption in the choice test using GLM ANOVA with Least Squares adjustment for multiple comparisons of mean values. For all tests data was analyzed separately for 2 d and 5 d.
Finally, mean consumption of the two radioisotopes, ^14C-hexaflumuron and ^3H-inulin, in the choice tests were compared to determine whether termites preferred one diet over another. […]

subterranean termites = subterranean termites fed hexaflumuron bait; cited from earlier work
[3] = system: eastern subterranean termites; details: in vivo; cited from earlier work
[4] = choice test hexaflumuron and inulin diets, 2 d
[5] = choice test hexaflumuron and inulin diets, 5 d
[6] = choice test hexaflumuron and inulin diets, 5 d, listed as inulin
[7] = choice test 14C-hexaflumuron and 3H-inulin diets, 5 d

## inulin
Reticulitermes sp.
  preferential consumption versus untreated towels and yellow pine wood: preferentially consumed inulin treated paper towels over untreated towels and yellow pine wood
Reticulitermes sp.; choice, in presence of yellow pine
  Termite Consumption Mean % ± SEM (percentage of total consumption of both paper towel diets): 64.7 ± 4.5%
Reticulitermes spp. [1]; [4]
  Consumption (mg) (Mean ± SEM): 2.0 ± 0.6 mg
Reticulitermes spp. [1]; [5]
  Consumption (mg) (Mean ± SEM): 6.0 ± 1.3 mg and 6.0 ± 1.3 b mg
Reticulitermes spp. [1]; [6]
  Consumption (mg) (Mean ± SEM): 6.0 mg
  feeding preference of termite populations (consumption significantly greater than 50% of total): preference for the inulin diet was indicated; also recorded: preference for the inulin treated bait
Reticulitermes spp. [1]; choice test, 5 d, Table B
  consumption of inulin treated bait relative to Hexaflumuron treated bait: 30 times
Reticulitermes spp. [2]; [7]
  consumption by an individual termite: 19.4 µg
Reticulitermes spp. [2]; 2 d
  feeding preference of individual termites: did not prefer either diet
Reticulitermes spp. [2]; 5 d, listed as 3H-inulin
  feeding preference of individual termites: significant preference
Reticulitermes spp. [2]; 5 d, listed as inulin
  feeding preference of individual termites: significant preference for the inulin treated bait

## O=C(NC(=O)c1c(F)cccc1F)Nc1cc(Cl)c(OC(F)(F)C(F)F)c(Cl)c1 [Hexaflumuron, N-(((3,5-dichloro-4-(1,1,2,2-tetrafluoroethoxy)phenyl)-amino)carbonyl)-2,6-difluorobenzamide]
Subterranean termites
  LT50: ~26.6 days
  onset of toxicity: approximately 15 d
Reticulitermes spp. [1]; choice test hexaflumuron and control diet, 2 d
  Hexaflumuron Consumption (mg) (Mean ± SEM): 1.6 ± 0.9a mg
Reticulitermes spp. [1]; choice test hexaflumuron and control diet, 2 d, listed as hexaflumuron
  Hexaflumuron Consumption (mg) (Mean ± SEM): 1.6 mg
Reticulitermes spp. [1]; choice test hexaflumuron and control diet, 5 d
  Hexaflumuron Consumption (mg) (Mean ± SEM): 3.2 ± 1.4a mg
Reticulitermes spp. [1]; choice test hexaflumuron and control diet, 5 d, listed as hexaflumuron
  Hexaflumuron Consumption (mg) (Mean ± SEM): 3.2 mg
Reticulitermes spp. [1]; [4]
  Consumption (mg) (Mean ± SEM): 1.0 ± 0.8a mg
Reticulitermes spp. [1]; choice test hexaflumuron and inulin diets, 2 d, listed as hexaflumuron
  Consumption (mg) (Mean ± SEM): 1.0 mg
Reticulitermes spp. [1]; [5]
  Consumption (mg) (Mean ± SEM): 0.2 ± 0.1b mg and 0.2 ± 0.1 a mg
Reticulitermes spp. [1]; choice test hexaflumuron and inulin diets, 5 d, listed as 14C-hexaflumuron
  Consumption (mg) (Mean ± SEM): 0.2 mg
Reticulitermes spp. [1]; choice test hexaflumuron and inulin diets, 5 d, listed as hexaflumuron
  Consumption (mg) (Mean ± SEM): 0.2 mg
Reticulitermes spp. [1]; no-choice test, 2 d, groups of 100 termite workers, 0.5% hexaflumuron diet
  Hexaflumuron Consumption (mg) (Mean ± SEM): 3.0 ± 0.7a mg
Reticulitermes spp. [1]; no-choice test, 2 d, groups of 100 termite workers, 0.5% hexaflumuron diet, listed as 14C-hexaflumuron
  Hexaflumuron Consumption (mg) (Mean ± SEM): 3 mg
Reticulitermes spp. [1]; no-choice test, 2 d, groups of 100 termite workers, 0.5% hexaflumuron diet, listed as hexaflumuron
  Hexaflumuron Consumption (mg) (Mean ± SEM): 3.0 mg
Reticulitermes spp. [1]; no-choice test, 5 d, groups of 100 termite workers, 0.5% hexaflumuron diet
  Hexaflumuron Consumption (mg) (Mean ± SEM): 11.4 ± 3.9a mg
Reticulitermes spp. [1]; no-choice test, 5 d, groups of 100 termite workers, 0.5% hexaflumuron diet, listed as 14C-hexaflumuron
  Hexaflumuron Consumption (mg) (Mean ± SEM): 11.4 mg
Reticulitermes spp. [1]; no-choice test, 5 d, groups of 100 termite workers, 0.5% hexaflumuron diet, listed as hexaflumuron
  Hexaflumuron Consumption (mg) (Mean ± SEM): 11.4 mg
[3]
  mean half life within the body of a termite: ~220 h
Reticulitermes spp. [2]; choice test 14C-hexaflumuron and 3H-inulin diets, 2 d
  consumption by an individual termite: 7.3 µg
Reticulitermes spp. [2]; [7]
  consumption by an individual termite: 2.3 µg
Reticulitermes spp. [2]; 2 d
  feeding preference of individual termites: did not prefer either diet
Reticulitermes spp. [2]; choice test competing with control diet, 2 d
  consumption by an individual termite: 14.5 µg
Reticulitermes spp. [2]; choice test in presence of control diet, 5 d
  consumption by an individual termite: 19.3 µg
Reticulitermes spp. [2]; no-choice test, 2 d
  consumption by an individual termite: 38.9 µg
Reticulitermes spp. [2]; no-choice test, 5 d
  consumption by an individual termite: 56.9 µg
